Results from patent publication US20080234266A1, “Squaric Acid Derivatives II” (priority 2005, published 2008).

molecular target: T1, CHK1 kinase (Homo sapiens, UniProt O14757); assay: Flashplate method (CHK1), measurement of the CHK1 kinase activity; type: biochemical; conditions: class symbols; 'Affinity to receptors'
T1 construct: glutathione S-transferase (GST); made in house; host or cells: Sf21 insect cells (S. frugiperda), baculovirus
T1 sequence (O14757 1-476): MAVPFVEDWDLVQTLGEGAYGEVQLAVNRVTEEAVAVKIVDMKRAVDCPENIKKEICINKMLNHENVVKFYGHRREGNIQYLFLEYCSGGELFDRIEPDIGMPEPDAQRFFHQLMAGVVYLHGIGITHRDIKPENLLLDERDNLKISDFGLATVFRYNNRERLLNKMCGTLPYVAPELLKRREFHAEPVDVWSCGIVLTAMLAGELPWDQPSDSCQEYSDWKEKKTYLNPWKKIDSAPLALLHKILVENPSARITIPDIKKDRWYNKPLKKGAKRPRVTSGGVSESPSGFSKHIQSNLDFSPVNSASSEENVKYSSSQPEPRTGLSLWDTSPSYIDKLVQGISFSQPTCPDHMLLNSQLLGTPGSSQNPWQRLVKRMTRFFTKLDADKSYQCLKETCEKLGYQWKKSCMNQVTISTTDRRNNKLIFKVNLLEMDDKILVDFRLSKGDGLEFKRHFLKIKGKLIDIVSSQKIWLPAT
Method: CHK1 kinase is expressed for the purposes of protein production in insect cells (Sf21; S. frugiperda) and subsequent purification by affinity chromatography as fusion protein with glutathione S-transferase in a baculovirus expression vector. The cultivation, infection and digestion of the cells as well as the purification of the fusion protein by column chromatography are carried out in accordance with manufacturer-oriented generic working instructions.
The kinase activity is measured using various available measurement systems. In the scintillation proximity method (Sorg et al., J. of. Biomolecular Screening, 2002, 7, 11-19), the flashplate method or the filter binding test, the radioactive phosphorylation of a protein or peptide as substrate is measured using radioactively labelled ATP (γ^32P-ATP, (γ^33P-ATP). In the case of the presence of an inhibitory compound, a reduced radioactive signal, or none at all, can be detected. Furthermore, homogeneous time-resolved fluorescence resonance energy transfer (HTR-FRET) and fluorescence polarisation (FP) technologies are useful as assay methods (Sills et al., J. of Biomolecular Screening, 2002, 191-214).
The test plates used are 384-well streptavidin-coated Flashplates Plus® from Perkin Elmer (Cat.No. SMP410A001PK). The assay plate is equilibrated with 75 μl of assay buffer per well 30 min before commencement of the experiment. The buffer is sucked out before commencement of the experiment, and the components of the kinase reaction described below are pipetted onto the plate.
CHK1 kinase, a biotinylated substrate peptide (for example CHKtide: […]), is incubated with radioactively labelled ATP in the presence and absence of test substances at 30° Celsius and a total volume of 50 μl. The reaction is terminated using 25 μl of a 0.2 M EDTA solution. After incubation for 30 min at room temperature, the supernatants are filtered off with suction, and the wells are washed three times with 100 μl of 0.9% NaCl solution each time. The measurement of the bound radioactivity is carried out by means of a scintillation measuring instrument (Topcount NXT, Perkin-Elmer).
The full value used is the inhibitor-free kinase reaction. This should be approximately in the range 3000-4000 cpm. The pharmacological zero value used is staurosporin in a final concentration of 0.1 μM. The inhibitory values (IC50) are determined using the program RS1_MTS ( ).
Kinase reaction conditions per well:
0.15 μg of CHKtide ([…])
50 μl total volume (1-fold assay buffer reaction conditions)
Solutions used: • assay buffer:
0.1 mM Titriplex VI (EGTA
10 mM magnesium acetate 0.1% mercaptoethanol
pH=7.5 (to be set using hydrochloric acid) Bovine serum albumin (final concentration 0.1%) is not added until just before use. • stop solution:
0.2 M TitriplexIII (EDTA)
• γ^33P-ATP (Perkin-Elmer) • CHK1 kinase preparations: specific activity>50 U/mg • CHKtide solution: biotinylated peptide substrate (Biotrend) stored as stock solution (concentration 0.15 mg/ml).

| Compound | IC50 [µM] |
| --- | --- |
| COc1ccccc1CNc1c(Nc2ccc3[nH]cnc3c2)c(=O)c1=O [Compound A144, 3-(1H-benzimidazol-5-ylamino)-4-(2-methoxybenzylamino)cyclobut-3-ene-1,2-dione] | > 1 |
| O=c1c(NCc2ccc(F)c(F)c2)c(Nc2ccc3[nH]cnc3c2)c1=O [Compound A43, 3-(1H-benzimidazol-5-ylamino)-4-(3,4-di-fluorobenzylamino)cyclobut-3-ene-1,2-dione] | > 1 |
| O=c1c(NCc2cccc(O)c2)c(Nc2cc3nc[nH]c3cc2F)c1=O [Compound A129, 3-(6-fluoro-1H-benzimidazol-5-ylamino)-4-(3-hydroxybenzylamino)cyclobut-3-ene-1,2-dione] | > 1 |
| O=C(CC(Nc1c(Nc2ccc3[nH]cnc3c2)c(=O)c1=O)c1cccc(O)c1)N1CCOCC1 (stereo not shown) [Compound A105, 3-(1H-benzimidazol-5-ylamino)-4-[1-(3-hydroxyphenyl)-3-morpholin-4-yl-3-oxo-propylamino]cyclobut-3-ene-1,2-dione] | > 1 |
| 3-(8-bromoimidazo[1,2-a]pyridin-6-ylamino)-4-(3-hydroxybenzylamino)cyclobut-3-ene-1,2-dione [Compound A60] | < 1 |
| CC(=O)Nc1cccc(CNc2c(Nc3ccc4[nH]cnc4c3)c(=O)c2=O)c1 [Compound A45, 3-(1H-benzimidazol-5-ylamino)-4-(3-acetamidobenzylamino)cyclobut-3-ene-1,2-dione] | > 1 |
| COCCn1cnc2cc(Nc3c(N[C@H](C)c4cccc(O)c4)c(=O)c3=O)ccc21 [Compound A74, 3-[(R)-1-(3-hydroxyphenyl)ethylamino]-4-[1-(2-methoxyethyl)-1H-benzimidazol-5-yl-amino]cyclobut-3-ene-1,2-dione] | > 1 |
| CCN(CC)CCn1cnc2cc(Nc3c(N[C@H](C)c4cccc(O)c4)c(=O)c3=O)ccc21 [Compound A73, 3-[1-(2-diethylaminoethyl)-1H-benzimidazol-5-ylamino]-4-[(R)-1-(3-hydroxyphenyl)ethyl-amino]cyclobut-3-ene-1,2-dione] | > 1 |
| COCCn1cnc2cc(Nc3c(N[C@H](C)c4cccc(OC)c4)c(=O)c3=O)ccc21 [Compound A72, 3-[1-(2-methoxyethyl)-1H-benzimidazol-5-ylamino]-4-[(R)-1-(3-methoxyphenyl)ethyl-amino]cyclobut-3-ene-1,2-dione] | > 1 |
| O=c1c(NCc2cccc(B(O)O)c2)c(Nc2ccc3[nH]cnc3c2)c1=O [Compound A125, 3-{[2-(1H-benzimidazol-5-ylamino)-3,4-dioxo-cyclobut-1-enylamino]methyl}phenylboronic acid] | > 1 |
| O=c1cnc2ccc(CNc3c(Nc4ccc5[nH]cnc5c4)c(=O)c3=O)cc2[nH]1 [Compound A163, 3-(1H-benzimidazol-5-ylamino)-4-[(3-oxo-3,4-dihydroquinoxalin-6-ylmethyl)amino]cyclobut-3-ene-1,2-dione] | > 1 |
| CN(C)CCOc1cccc(CNc2c(Nc3ccc4[nH]cnc4c3)c(=O)c2=O)c1 [Compound A108, 3-(1H-benzimidazol-5-ylamino)-4-[3-(2-di-methylaminoethoxy)benzylamino]cyclobut-3-ene-1,2-dione] | > 1 |
| CN(C)CCNC(=O)CC(Nc1c(Nc2ccc3[nH]cnc3c2)c(=O)c1=O)c1cccc(O)c1 (stereo not shown) [Compound A113, 3-[2-(1H-benzimidazol-5-ylamino)-3,4-dioxo-cyclobut-1-enylamino]-N-(2-dimethylamino-ethyl)-3-(3-hydroxyphenyl)propionamide] | > 1 |
| NS(=O)(=O)c1ccc(CNc2c(Nc3ccc4[nH]cnc4c3)c(=O)c2=O)cc1 [Compound A151, 3-(1H-benzimidazol-5-ylamino)-4-(4-amino-sulfonylbenzylamino)cyclobut-3-ene-1,2-dione] | > 1 |
| Cn1cnc2cc(Nc3c(NCc4cccc(O)c4)c(=O)c3=O)ccc21 [Compound A50, 3-(1-methyl-1H-benzimidazol-5-ylamino)-4-(3-hydroxybenzylamino)cyclobut-3-ene-1,2-dione] | > 1 |
| CCOC(=O)CC(Nc1c(Nc2ccc3[nH]cnc3c2)c(=O)c1=O)c1cccc(O)c1 (stereo not shown) [Compound A100, ethyl 3-[2-(1H-benzimidazol-5-ylamino)-3,4-dioxocyclobut-1-enylamino]-3-(3-hydroxy-phenyl)propionate] | > 1 |
| CNS(=O)(=O)c1ccccc1CNc1c(Nc2ccc3[nH]cnc3c2)c(=O)c1=O [Compound A154, 3-(1H-benzimidazol-5-ylamino)-4-[2-(N-methylaminosulfonyl)benzylamino]cyclobut-3-ene-1,2-dione] | > 1 |
| O=c1c(NCc2cccc(OC(F)F)c2)c(Nc2ccc3nc[nH]c3c2)c1=O [Compound A164, 3-(3H-benzimidazol-5-ylamino)-4-(3-difluoro-methoxybenzylamino)cyclobut-3-ene-1,2-dione] | > 1 |
| O=c1c(NCc2cccc(OCCO)c2)c(Nc2ccc3[nH]cnc3c2)c1=O [Compound A107, 3-(1H-benzimidazol-5-ylamino)-4-[3-(2-hydroxyethoxy)benzylamino]cyclobut-3-ene-1,2-dione] | > 1 |

Other lines, results leading:

| IC50 [µM] | Compound |
| --- | --- |
| > 1 | CC(C)(C)OC(=O)N1CCC(Oc2ccccc2CNc2c(Nc3ccc4[nH]cnc4c3)c(=O)c2=O)CC1 [Compound A146, 3-(1H-benzimidazol-5-ylamino)-4-[2-(1-tert-butyloxycarbonylpiperidin-4-yloxy)benzyl-amino]cyclobut-3-ene-1,2-dione] |
| > 1 | O=c1c(NCc2cccc(O)c2)c(Nc2ccc3cc[nH]c3c2)c1=O [Compound A28, 3-(1H-indol-6-ylamino)-4-(3-hydroxybenzyl-amino)cyclobut-3-ene-1,2-dione] |
| > 1 | CCN(CC)CCn1cnc2ccc(Nc3c(NCc4ccc(-c5nnn[nH]5)cc4)c(=O)c3=O)cc21 [Compound A167, 3-[3-(2-diethylaminoethyl)-3H-benzimidazol-5-ylamino]-4-[4-(1H-tetrazol-5-yl)benzyl-amino]cyclobut-3-ene-1,2-dione] |
| > 1 | CNS(=O)(=O)c1cccc(CNc2c(Nc3ccc4[nH]cnc4c3)c(=O)c2=O)c1 [Compound A44, 3-(1H-benzimidazol-5-ylamino)-4-[3-(methyl-aminosulfonyl)benzylamino]cyclobut-3-ene-1,2-dione] |
| > 1 | O=c1c(NCCc2ccccc2O)c(Nc2ccc3[nH]cnc3c2)c1=O [Compound A149, 3-(1H-benzimidazol-5-ylamino)-4-[2-(2-hydroxyphenyl)ethylamino]cyclobut-3-ene-1,2-dione] |
| < 1 | Cn1cnc2ccc(Nc3c(NCc4cccc(O)c4)c(=O)c3=O)cc21 [Compound A52, 3-(3-hydroxybenzylamino)-4-(3-methyl-3H-benzimidazol-5-ylamino)cyclobut-3-ene-1,2-dione] |
| > 1 | O=c1c(NCc2cccc(F)c2)c(Nc2ccc3[nH]cnc3c2)c1=O [Compound A31, 3-(1H-benzimidazol-5-ylamino)-4-(3-fluoro-benzylamino)cyclobut-3-ene-1,2-dione] |
| > 1 | CCN(CC)CCn1cnc2ccc(Nc3c(NCc4cccc(S(N)(=O)=O)c4)c(=O)c3=O)cc21 [Compound A71, 3-[3-(2-diethylaminoethyl)-3H-benzimidazol-5-ylamino]-4-(3-aminosulfonylbenzylamino)-cyclobut-3-ene-1,2-dione] |
| < 1 | COc1cccc([C@@H](C)Nc2c(Nc3ccc4[nH]cnc4c3)c(=O)c2=O)c1 [Compound A2, 3-(1H-benzimidazol-5-ylamino)-4-[(R)-1-(3-methoxyphenyl)ethylamino]cyclobut-3-ene-1,2-dione] |
